Measured values taken from US20260137697A1, “THIAZOLO[5,4-D]PYRIMIDINE COMPOUNDS, COMPOSITIONS COMPRISING THEM AND USES THEREOF” (University de Montreal, priority 2022, published 2026).

Test system: pERK, RAS-mutant cancer cell lines
Test: Paradoxical pERK induction across the panel of RAS-mutant cancer cell lines
Type: cell-based, human
Conditions: in 10 of the 13 RAS-mutant cell lines tested; mild to strong induction of the pathway
Protocol: All cancer cell lines (A375, A101D, A2058, RKO, HT29 SK-MEL 30, IPC298, HepG2, HCT-116, Lovo, SW620, SW480, NCI-H358, NCI-H2122, Calu-6, NCIH2087, NCIH1755, NCIH1666 and Mewo) were obtained from ATCC and cultured in RPM1-1640 medium (Gibco) supplemented with 5% heat inactivated fetal bovine serum (FBS, Wisent) at 37° C. under 5% CO2. Cells were maintained in T175 flasks (Greiner). They were passaged by removing the culture medium, washing once in 10 mL of room temperature Phosphate Buffered Saline (PBS; Wisent) and incubating at 37° C. with 2 mL of 0.05% Trypsin (Thermo-Fisher). […]
After treatment, media was removed, and cells were lysed in 50 μL of 1× AlphaScreen Ultra Lysis Buffer (Perkin Elmer). […] After completion of the reactions, the signals were recorded on an EnVision plate reader (Perkin Elmer) using built in AlphaLISA® settings.
The effect of each compound dilution on the pERK signal was expressed in % inhibition and calculated as follows. […]
The ability of each compound to inhibit pERK signal was expressed as an IC50 value obtained by plotting the inhibition values for each data point of a dilution series and fitting the obtained curves using a log(agonist) versus response—variable slope (four parameters) function using GraphPadPrism (V7.0) or Dotmatics Screening Ultra platform. […]

SMILES: Cc1ccc2c(Nc3cccc(Cl)c3F)nccc2c1NC(=O)c1csc2c(N)ncnc12 [Belvarafenib, reference compound]
- YMIN of pERK IC50 curves: < −30%
